# Assay results published in ChEMBL document CHEMBL3046853, “Synthesis, antimicrobial evaluation, ot-QSAR and mt-QSAR studies of 2-amino benzoic acid derivatives” (2012).
# Activity calls are given as the source filed them. No cut-off for these calls is given here.
# How the values were obtained:
# Candida albicans [1] = experiment: Fungicidal activity against Candida albicans; format: functional, organism-based
# Escherichia coli [2] = experiment: Bactericidal activity against Escherichia coli; format: functional, organism-based
# Bacillus subtilis [3] = experiment: Antibacterial activity against Bacillus subtilis after 24 hr by serial dilution technique; format: functional
# Bacillus subtilis [4] = experiment: Bactericidal activity against Bacillus subtilis; format: functional, organism-based
# Aspergillus niger [5] = experiment: Antifungal activity against Aspergillus niger after 7 days by serial dilution technique; format: functional
# Staphylococcus aureus [6] = experiment: Bactericidal activity against Staphylococcus aureus; format: functional, organism-based
# Aspergillus niger [7] = experiment: Fungicidal activity against Aspergillus niger after 7 days by serial dilution technique; format: functional, organism-based
# Staphylococcus aureus [8] = experiment: Antibacterial activity against Staphylococcus aureus after 24 hr by serial dilution technique; format: functional
# Candida albicans [9] = experiment: Antifungal activity against Candida albicans after 2 days by serial dilution technique; format: functional
# Escherichia coli [10] = experiment: Antibacterial activity against Escherichia coli after 24 hr by serial dilution technique; format: functional
Structure (SMILES),Activity (Candida albicans [1]),Activity (Escherichia coli [2]),-logMIC (Bacillus subtilis [3]),Activity (Bacillus subtilis [4]),-logMIC (Aspergillus niger [5]),Activity (Staphylococcus aureus [6]),Activity (Aspergillus niger [7]),-logMIC (Staphylococcus aureus [8]),-logMIC (Candida albicans [9]),-logMIC (Escherichia coli [10])
Nc1ccccc1C(=O)Nc1ccc(F)c(Cl)c1,Active,Active,2.23,Active,1.02,Active,Active,1.33,1.33,1.33
Cc1ccc(C)c(NC(=O)c2ccccc2N)c1,Active,Active,2.19,Active,1.28,Active,Active,1.28,1.3,1.28
NC(=O)c1ccccc1N [ANTHRANILAMIDE],Active,Active,1.94,Active,1.64,Active,Active,1.04,1.04,1.04
CCCCCCOC(=O)c1ccccc1N [HEXYL 2-AMINOBENZOATE],Active,Active,2.15,Active,1.85,Active,Active,1.25,1.25,1.85
Nc1ccccc1C(=O)N(c1ccccc1)c1ccccc1,Active,Active,2.27,Active,1.66,Active,Active,1.36,1.36,1.66
COc1ccccc1NC(=O)c1ccccc1N,Active,Active,1.59,Active,1.29,Active,Active,1.29,1.29,1.2
CCCCN(CCCC)C(=O)c1ccccc1N,Active,Active,2.2,Active,1.6,Active,Active,1.3,1.3,1.6
OC(Cn1cncn1)(Cn1cncn1)c1ccc(F)cc1F [FLUCONAZOLE],,,,,2.64,,,,2.64,
CCn1cc(C(=O)O)c(=O)c2cc(F)c(N3CCNCC3)cc21 [NORFLOXACIN],,,3.33,,,,,3.33,,3.33
